From the NIST ThermoML archive (doi:10.1016/j.jct.2007.02.004)
± gives the expanded uncertainty stated by the source.

What was measured:
[1] = 293.15 K; 101.33 kPa; Liquid
[2] = refractive index (Na D-line) (dimensionless); settings: 293.15 K; 101.33 kPa; Liquid; Standard Abbe refractometry
[3] = xn = mol fraction of the nth substance listed; settings: 101 kPa, Liquid

CC(=O)c1ccccc1 [acetophenone]
Settings | mass density [kg/m3] | refractive index
[1] | 1027.93 ± 0.6 | –
[2] | – | 1.5336 ± 0.0008

CC(=O)c1ccccc1 [acetophenone] + CCCCCCO
mass density [kg/m3], [3]
Settings | 293.15 K | 303.15 K | 313.15 K | 323.15 K
x1 = 0.0498 | 828.67 ± 0.72 | 821.42 ± 0.74 | 813.97 ± 0.75 | 806.47 ± 0.77
x1 = 0.1009 | 838.84 ± 0.7 | 831.49 ± 0.72 | 823.85 ± 0.73 | 816.28 ± 0.75
x1 = 0.1517 | 848.99 ± 0.68 | 841.56 ± 0.7 | 833.75 ± 0.71 | 826.11 ± 0.73
x1 = 0.2106 | 860.83 ± 0.66 | 853.32 ± 0.68 | 845.32 ± 0.69 | 837.59 ± 0.71
x1 = 0.2474 | 868.27 ± 0.65 | 860.71 ± 0.66 | 852.58 ± 0.68 | 844.8 ± 0.69
x1 = 0.3028 | 879.54 ± 0.62 | 871.9 ± 0.64 | 863.61 ± 0.66 | 855.74 ± 0.67
x1 = 0.3426 | 887.68 ± 0.61 | 879.99 ± 0.62 | 871.57 ± 0.64 | 863.65 ± 0.66
x1 = 0.3978 | 899.04 ± 0.59 | 891.28 ± 0.6 | 882.7 ± 0.62 | 874.71 ± 0.64
x1 = 0.4512 | 910.1 ± 0.57 | 902.26 ± 0.58 | 893.55 ± 0.6 | 885.48 ± 0.62
x1 = 0.4985 | 919.95 ± 0.55 | 912.05 ± 0.57 | 903.23 ± 0.58 | 895.1 ± 0.6
x1 = 0.5526 | 931.29 ± 0.53 | 923.31 ± 0.54 | 914.38 ± 0.56 | 906.19 ± 0.58
x1 = 0.6071 | 942.79 ± 0.5 | 934.73 ± 0.52 | 925.7 ± 0.54 | 917.44 ± 0.55
x1 = 0.6491 | 951.7 ± 0.48 | 943.59 ± 0.5 | 934.49 ± 0.52 | 926.17 ± 0.53
x1 = 0.7101 | 964.72 ± 0.46 | 956.53 ± 0.47 | 947.35 ± 0.49 | 938.95 ± 0.51
x1 = 0.7485 | 972.96 ± 0.44 | 964.73 ± 0.46 | 955.5 ± 0.47 | 947.06 ± 0.49
x1 = 0.8019 | 984.49 ± 0.42 | 976.21 ± 0.43 | 966.9 ± 0.45 | 958.4 ± 0.47
x1 = 0.8521 | 995.4 ± 0.39 | 987.06 ± 0.41 | 977.72 ± 0.43 | 969.16 ± 0.45
x1 = 0.9045 | 1006.85 ± 0.4 | 998.46 ± 0.39 | 989.09 ± 0.41 | 980.48 ± 0.42
x1 = 0.9554 | 1018.05 ± 0.43 | 1009.61 ± 0.41 | 1000.23 ± 0.38 | 991.56 ± 0.4

CC(=O)c1ccccc1 [acetophenone] + CCOC(=O)OCC
mass density [kg/m3], [3]
Settings | 293.15 K | 303.15 K | 313.15 K | 323.15 K
x2 = 0.0511 | 1025.44 ± 0.44 | 1016.4 ± 0.42 | 1007.58 ± 0.39 | 998.79 ± 0.38
x2 = 0.1014 | 1023.08 ± 0.43 | 1014.09 ± 0.4 | 1005.19 ± 0.38 | 996.27 ± 0.37
x2 = 0.1501 | 1020.74 ± 0.41 | 1011.77 ± 0.39 | 1002.73 ± 0.36 | 993.68 ± 0.37
x2 = 0.1996 | 1018.43 ± 0.4 | 1009.35 ± 0.37 | 1000.2 ± 0.35 | 991.08 ± 0.36
x2 = 0.2465 | 1016.19 ± 0.38 | 1007.04 ± 0.36 | 997.78 ± 0.34 | 988.56 ± 0.36
x2 = 0.3041 | 1013.28 ± 0.36 | 1004.02 ± 0.34 | 994.63 ± 0.34 | 985.24 ± 0.36
x2 = 0.3467 | 1011.14 ± 0.35 | 1001.78 ± 0.33 | 992.31 ± 0.34 | 982.8 ± 0.36
x2 = 0.4001 | 1008.46 ± 0.34 | 998.99 ± 0.32 | 989.35 ± 0.34 | 979.74 ± 0.36
x2 = 0.4507 | 1005.87 ± 0.32 | 996.27 ± 0.31 | 986.55 ± 0.33 | 976.77 ± 0.35
x2 = 0.4888 | 1003.88 ± 0.31 | 994.18 ± 0.31 | 984.35 ± 0.33 | 974.49 ± 0.35
x2 = 0.5506 | 1000.64 ± 0.29 | 990.73 ± 0.31 | 980.71 ± 0.33 | 970.76 ± 0.35
x2 = 0.6038 | 997.77 ± 0.29 | 987.73 ± 0.31 | 977.48 ± 0.33 | 967.47 ± 0.35
x2 = 0.6498 | 995.25 ± 0.29 | 985.06 ± 0.31 | 974.69 ± 0.33 | 964.54 ± 0.35
x2 = 0.7104 | 991.92 ± 0.29 | 981.54 ± 0.31 | 971.04 ± 0.33 | 960.63 ± 0.35
x2 = 0.7513 | 989.53 ± 0.29 | 979.05 ± 0.31 | 968.47 ± 0.33 | 957.86 ± 0.36
x2 = 0.8078 | 986.29 ± 0.29 | 975.68 ± 0.31 | 964.89 ± 0.33 | 954.13 ± 0.36
x2 = 0.8522 | 983.66 ± 0.29 | 972.91 ± 0.31 | 961.99 ± 0.34 | 951.07 ± 0.36
x2 = 0.8993 | 980.83 ± 0.29 | 969.91 ± 0.31 | 958.99 ± 0.34 | 947.76 ± 0.36
x2 = 0.9488 | 977.82 ± 0.29 | 966.78 ± 0.32 | 955.63 ± 0.34 | 944.32 ± 0.37

CCOC(=O)OCC [diethyl carbonate]
Settings | mass density [kg/m3] | refractive index
[1] | 974.65 ± 0.28 | –
[2] | – | 1.3845 ± 0.0007

CCOC(=O)OCC [diethyl carbonate] + CCCCCCO
mass density [kg/m3], [3]
Settings | 293.15 K | 303.15 K | 313.15 K | 323.15 K
x1 = 0.0502 | 825.96 ± 0.72 | 818.55 ± 0.74 | 811.04 ± 0.75 | 803.29 ± 0.77
x1 = 0.1123 | 834.86 ± 0.7 | 827.16 ± 0.71 | 819.37 ± 0.73 | 811.3 ± 0.74
x1 = 0.1499 | 840.29 ± 0.68 | 832.48 ± 0.7 | 824.54 ± 0.71 | 816.2 ± 0.73
x1 = 0.2103 | 849.1 ± 0.65 | 841.04 ± 0.67 | 832.78 ± 0.69 | 824.2 ± 0.71
x1 = 0.2508 | 855.05 ± 0.64 | 846.79 ± 0.65 | 838.35 ± 0.67 | 829.57 ± 0.69
x1 = 0.3121 | 864.19 ± 0.61 | 855.69 ± 0.63 | 846.97 ± 0.65 | 837.88 ± 0.67
x1 = 0.3576 | 871.02 ± 0.59 | 862.23 ± 0.61 | 853.42 ± 0.63 | 844.05 ± 0.65
x1 = 0.4113 | 879.15 ± 0.57 | 870.21 ± 0.59 | 861.12 ± 0.61 | 851.48 ± 0.63
x1 = 0.4632 | 887.08 ± 0.55 | 877.88 ± 0.57 | 868.59 ± 0.59 | 858.73 ± 0.61
x1 = 0.5111 | 894.51 ± 0.53 | 885.13 ± 0.55 | 875.61 ± 0.57 | 865.59 ± 0.59
x1 = 0.552 | 900.88 ± 0.51 | 891.35 ± 0.53 | 881.55 ± 0.55 | 871.51 ± 0.57
x1 = 0.6008 | 908.59 ± 0.48 | 898.87 ± 0.51 | 888.91 ± 0.53 | 878.65 ± 0.55
x1 = 0.6498 | 916.39 ± 0.46 | 906.42 ± 0.48 | 896.35 ± 0.5 | 885.85 ± 0.53
x1 = 0.7108 | 926.19 ± 0.43 | 915.93 ± 0.45 | 905.65 ± 0.48 | 894.96 ± 0.5
x1 = 0.7554 | 933.45 ± 0.41 | 923.08 ± 0.43 | 912.55 ± 0.46 | 901.77 ± 0.48
x1 = 0.8112 | 942.65 ± 0.38 | 932.03 ± 0.41 | 921.16 ± 0.43 | 910.41 ± 0.46
x1 = 0.8501 | 949.13 ± 0.37 | 938.29 ± 0.39 | 927.49 ± 0.41 | 916.42 ± 0.44
x1 = 0.9002 | 957.5 ± 0.34 | 946.57 ± 0.37 | 935.57 ± 0.39 | 924.3 ± 0.42
x1 = 0.9555 | 966.89 ± 0.31 | 955.77 ± 0.34 | 944.49 ± 0.36 | 933.24 ± 0.39

CCCCCCO [hexan-1-ol]
Settings | mass density [kg/m3] | refractive index
[1] | 818.84 ± 0.97 | –
[2] | – | 1.4178 ± 0.0008
